The record followed here is publication PMC7801115, “Preclinical in vitro screening of newly synthesised amidino substituted benzimidazoles and benzothiazoles” (Journal of Enzyme Inhibition and Medicinal Chemistry, 2021).

As usually defined, the chromatographic logD is lipophilicity estimated from chromatographic retention. One may read the IC50 as the concentration at which inhibition is half-maximal.

The structures appear in SMILES notation.

Data set [1] can be described thus: Chromatographic lipophilicity study (Chrom logD7.4). To be noted: gradient reverse-phase HPLC (Phenomenex Luna C18 column); pH 7.4, gradient reverse-phase HPLC, from CHI7.4. It counts as physicochemical. The method, then:
In order to determine the lipophilicity range, Chromatographic Hydrophobicity Index was measured by gradient reverse-phase HPLC at physiological pH. Sample working solutions were prepared from 10 mM DMSO stock solutions by dilution with acetonitrile to a final concentration of 1.25 mM and analysed on Agilent 1100 Series liquid chromatography system with HPLC diode-array detector (DAD) coupled with Micromass Quattro micro API mass spectrometer. Samples were injected onto an HPLC column (Phenomenex Luna C18, 50 × 3 mm, 5 µm) and eluted with a gradient at room temperature (sample temperature 15 °C). The mobile phase was composed of 50 mM Ammonium acetate, pH = 7.4 and acetonitrille. A total run time was 5 min, with the flow rate of 1 ml/min (under gradient conditions). The HPLC system was initially calibrated using the calibration set of 10 compounds with literature CHI values. The experimentally determined gradient retention times were plotted against the CHI7.4 values published in the literature resulting in the equation obtained from linear regression analysis. This equation was further used for the calculation of CHI7.4 for test compounds from determined retention times of the main chromatographic peak from UV chromatogram for each compound. The obtained CHI7.4 values were further converted to Chrom log D7.4 as follows: CHI7.4 × 0.0857 − 2.

The test system of data set [2] is A549. As to the kind of experiment: MTS cell viability (cytotoxicity) assay, 2D cell culture. Type of data set: cell-based. To be noted: Homo sapiens, A549, 2D cell culture, 72 h, ±SD, N = 2, read-out: IC50 antitumor activity A549 2D. The procedure, abridged: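 Cells (10,000/well) seeded 4 h before 72 h exposure to 1:3 compound dilutions starting at 50 µM (2D culture), 0.5–1.0% DMSO.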

The subject of data set [3] is NCI-H358. Nature of the data set: BrdU proliferation assay, 2D cell culture. It counts as cell-based. To be noted: Homo sapiens, NCI-H358, 2D cell culture, ±SD, N = 2. How it is done: (§1) Cells were grown in 96 well cell star polystyrene plates. 10,000 cells/well were seeded in wells 4 h prior the treatment with different compounds concentrations and incubated for 72 h. A cell viability assay was performed according to the manufacturer’s instruction, using CellTiter 96 aqueous solution, MTS kit (Promega, Madison, WI, USA). After 0.5–2 h of cell incubation with MTS in 2 D cell culture, the plates were read using PE EnVision absorbance at 490 nm. […] Since we prefer homogeneous assays (mix and read procedures) and therefore MTS is more practical (one step less than MTT). MTS is more sensitive and accurate in comparison with MTT assay.
(§2) Proliferation assay was performed using Cell Proliferation ELISA, BrdU (Sigma, St. Louis, MO, USA). Briefly, 48 h hours after compound addition, 10 µM of BrdU was added to each well and incubated for following 24 h. After incubation, single cell suspension was made for 3 D cell culture in the new 96 well plate. Plates were centrifuged and supernatants were removed from each plate (for 2 D and 3 D cell culture) followed by 60 min incubation at 60° C. The rest of the proliferation assay was performed according to the manufacturer instructions.
(§3) Calculation of IC50 data, curves and QC analysis is made by using Excel tools and GraphPadPrism software (La Jolla, CA), v. […] QC criteria parameters (Z', S:B, R2, HillSlope) were checked for every IC50 curve.

The test system of the next data set is HCC827. As to the kind of experiment: BrdU proliferation assay, 2D cell culture. It counts as cell-based. To be noted: Homo sapiens, HCC827, 2D cell culture, ±SD, N = 2. The method, then: as §1, §2, §3
For data set [4], the system named is NCI-H358. Nature of the data set: BrdU proliferation assay, 3D cell culture. Type of data set: cell-based. To be noted: Homo sapiens, NCI-H358, 3D cell culture, ±SD, N = 2. The method, then:
(§4) Cells were grown in 96 well Perfecta 3 D hanging drop plates 5000 cell/well for 4 days until spheres were formed (and checked under the microscope). After sphere formation cells were treated with compounds followed by 72 h incubation. Cell viability assay was performed according to the manufacturer’s instruction, using CellTiter GLO 3 D for 3 D cell culture (Promega); cell incubation was 5 min on the shaker followed by 25 min incubation in the dark. Plates were read using PE EnVision luminescence. The results for each of tested compounds are reported as growth percentages from two independent concentrations curves compared with the untreated control cells after drug exposure.
as §2
(§5) Calculation of IC50 data, curves and QC analysis is made by using Excel tools and GraphPadPrism software (La Jolla, CA), v. 5.03. In brief, individual concentration–effect curves are generated by plotting the logarithm of the tested concentration of tested compounds (X) versus corresponding percent inhibition values (Y) using least squares (ordinary) fit. […] QC criteria parameters (Z', S:B, R2, HillSlope) were checked for every IC50 curve.

Data set [5] concerns A549. As to the kind of experiment: BrdU proliferation assay, 3D cell culture. Type of data set: cell-based. To be noted: Homo sapiens, A549, 3D cell culture, ±SD, N = 2. How it is done:
as §4, §2, §5

On to `c1ccc2c(-c3nc4ccc(C5=NCCCN5)cc4[nH]3)c[nH]c2c1` [Compound 6e, 2-(1H-Indol-3-yl)-5(6)–(3,4,5,6-tetrahydropyrimidin-1-ium-2-yl)benzimidazole chloride], for which the chromatographic logD in data set [1] came to 1.38. The half-maximal inhibitory concentration (IC50) with A549 [2] is > 50 µM; with NCI-H358 [3], > 50 µM; with HCC827, > 50 µM; with NCI-H358 [4], > 100 µM; with A549 [5] it was > 100 µM.
Regarding `c1ccc(-c2nc3cc(C4=NCCCN4)ccc3[nH]2)cc1` [Compound 6a, 2-Phenyl-5(6)–(3,4,5,6-tetrahydropyrimidin-1-ium-2-yl)benzimidazole chloride], the chromatographic logD in data set [1] is 0.92. Also, the IC50 in the data set on A549 [2] was 15 ± 1.7 µM; in the data set on NCI-H358 [3] it was 7 ± 0.3 µM; with HCC827 it was 7 ± 0.35 µM; in the data set on NCI-H358 [4], 3 ± 1.41 µM; in the data set on A549 [5] it was 12 ± 0.28 µM.
In the case of `Cl.c1ccc2sc(-c3nc4ccc(C5=NCCCN5)cc4s3)cc2c1` [Compound 5e, 2-(Benzo[b]thiophen-2-yl)-6–(3,4,5,6-tetrahydropyrimidin-1-ium-2-yl)benzothiazole chloride], the chromatographic logD in data set [1] was found to be 3.19. Besides, the IC50 with A549 [2] worked out at 36 ± 6.37 µM; with NCI-H358 [3], 9 ± 0.65 µM; in the data set with HCC827 it was 10 ± 1.21 µM; with NCI-H358 [4], 5 ± 0.81 µM; with A549 [5] it was 23 ± 6.24 µM.
In the case of `Cl.c1ccc2sc(-c3nc4ccc(C5=NCCCN5)cc4s3)nc2c1` [Compound 5g, 2-(Benzothiazole-2-yl)-6–(3,4,5,6-tetrahydropyrimidin-1-ium-2-yl)benzothiazole chloride], the chromatographic logD in data set [1] was 2.71. Also, the 50% inhibitory concentration (IC50) with A549 [2] is 41 ± 0.54 µM; in the data set with NCI-H358 [3], 13 ± 0.45 µM; in the data set on HCC827, 18 ± 0.76 µM; with NCI-H358 [4] it was 7 ± 2.33 µM; in the data set on A549 [5], 14 ± 3.07 µM.
With `c1ccc2c(c1)cc(-c1nc3cc(C4=NCCCN4)ccc3[nH]1)c1ccccc12` [Compound 6g, 2-(Phenanthrene-9-yl)-5(6)–(3,4,5,6-tetrahydropyrimidin-1-ium-2-yl)benzimidazole chloride], in data set [1], the chromatographic logD worked out at 3.27. Besides, the IC50 in the data set with A549 [2] was > 50 µM; in the data set with NCI-H358 [3], > 50 µM; with HCC827 it was > 50 µM; in the data set on NCI-H358 [4], > 100 µM; in the data set with A549 [5], > 100 µM.
As for `FC(F)(F)c1ccc(-c2nc3cc(C4=NCCCN4)ccc3[nH]2)cc1` [Compound 6c, 2–(4-Trifluoromethylphenyl)-5(6)–(3,4,5,6-tetrahydropyrimidin-1-ium-2-yl)benzimidazole chloride], in data set [1], the chromatographic logD turned out to be 2.6. The concentration for half-maximal inhibition (IC50) in the data set on A549 [2] was > 50 µM; with NCI-H358 [3], > 50 µM; in the data set on HCC827, > 50 µM; in the data set on NCI-H358 [4], > 100 µM; in the data set with A549 [5], > 100 µM.
Regarding `c1ccc2sc(-c3nc4cc(C5=NCCCN5)ccc4[nH]3)cc2c1` [Compound 6d, 2-(Benzo[b]thiophen-2-yl)-5(6)–(3,4,5,6-tetrahydropyrimidin-1-ium-2-yl)benzimidazole chloride], in data set [1], the chromatographic logD is 2.43. The IC50 is > 50 µM with A549 [2]; > 50 µM in the data set with NCI-H358 [3]; > 50 µM with HCC827; > 100 µM with NCI-H358 [4]; > 100 µM in the data set with A549 [5].
Take `N#Cc1ccc(-c2nc3cc(C4=NCCCN4)ccc3[nH]2)cc1` [Compound 6b, 2–(4-Cyanophenyl)-5(6)–(3,4,5,6-tetrahydropyrimidin-1-ium-2-yl)benzimidazole chloride]: the chromatographic logD in data set [1] was 1.17. Further, the half-maximal inhibitory concentration (IC50) was > 50 µM in the data set on A549 [2]; > 50 µM with NCI-H358 [3]; > 50 µM in the data set on HCC827; > 100 µM in the data set with NCI-H358 [4]; > 100 µM in the data set on A549 [5].
Take `Cl.c1ccc2cc(-c3nc4ccc(C5=NCCCN5)cc4s3)ccc2c1` [Compound 5h, 2-(Naphthalene-2-yl)-6–(3,4,5,6-tetrahydropyrimidin-1-ium-2-yl)benzothiazole chloride]: in data set [1], the chromatographic logD was found to be 3.31. In addition, the IC50 is 38 ± 3.68 µM in the data set with A549 [2]; 7 ± 0.07 µM in the data set on NCI-H358 [3]; 9 ± 0.83 µM in the data set on HCC827; 1 ± 0.81 µM in the data set with NCI-H358 [4]; 14 ± 0.06 µM in the data set on A549 [5].
`Cl.c1ccc2nc(-c3nc4ccc(C5=NCCCN5)cc4s3)ccc2c1` [Compound 5d, 2-(Quinoline-2-yl)-6–(3,4,5,6-tetrahydropyrimidin-1-ium-2-yl)benzothiazole chloride] registered a chromatographic logD in data set [1] of 2.87. Moreover, the half-maximal inhibitory concentration (IC50) is > 50 µM in the data set with A549 [2]; 9 ± 0.31 µM in the data set on NCI-H358 [3]; 11 ± 0.17 µM in the data set on HCC827; 13 ± 1.65 µM in the data set on NCI-H358 [4]; 16 ± 1.3 µM with A549 [5].
Take `c1ccc2cc(-c3nc4cc(C5=NCCCN5)ccc4[nH]3)ccc2c1` [Compound 6f, 2-(Naphthalene-2-yl)-5(6)–(3,4,5,6-tetrahydropyrimidin-1-ium-2-yl)benzimidazole chloride]: in data set [1], the chromatographic logD is 2.18. The IC50 is > 50 µM in the data set with A549 [2]; > 50 µM in the data set on NCI-H358 [3]; > 50 µM in the data set on HCC827; > 100 µM in the data set on NCI-H358 [4]; > 100 µM in the data set on A549 [5].
The compound `Cl.FC(F)(F)c1ccc(-c2nc3ccc(C4=NCCCN4)cc3s2)cc1` [Compound 5c, 2–(4-Trifluoromethylphenyl)-6–(3,4,5,6-tetrahydropyrimidin-1-ium-2-yl)benzothiazole chloride] returned a chromatographic logD in data set [1] of 3.31. For the same compound, the IC50 in the data set with A549 [2] was found to be 34 ± 8.65 µM; with NCI-H358 [3] it was 16 ± 4.14 µM; with HCC827 it was 15 ± 2.18 µM; with NCI-H358 [4], 4.31 µM; in the data set on A549 [5], 13 ± 0.78 µM.
With `Cl.N#Cc1ccc(-c2nc3ccc(C4=NCCCN4)cc3s2)cc1` [Compound 5b, 2–(4-Cyanophenyl)-6–(3,4,5,6-tetrahydropyrimidin-1-ium-2-yl)benzothiazole chloride], the chromatographic logD in data set [1] amounted to 2.18. Moreover, the IC50 is > 50 µM in the data set with A549 [2]; > 50 µM in the data set with NCI-H358 [3]; > 50 µM in the data set with HCC827; > 100 µM in the data set on NCI-H358 [4]; 87 ± 0.11 µM in the data set on A549 [5].
